Test results from patent US20030008234A1, “Optical data carrier comprising a cyanine dye as light-absorbent compound in the information layer” (priority 2001, published 2003).

Experiment: Solubility in TFP (2,2,3,3-tetrafluoropropanol)
Assay type: physicochemical

SMILES | Solubility [%]
CCN1CCS/C1=C/c1sc2ccccc2[n+]1C | 5
CC(C)N(c1nn(C)/c(=N/C=C/C2=[N+](C)c3ccccc3C2(C)C)s1)C(C)C [Example 1] | > 2
CCN1CCS/C1=C/c1sc2ccccc2[n+]1C.[I-] [Example 2] | 5
